Reference: US20170037425A1, “METHOD FOR IMPROVING PLANT TRAIT” (SHANGHAI INSTITUTES FOR BIOLOGICAL SCIENCES, CHINESE …, priority 2012, published 2017)

How the values were obtained:
[1] = In vitro H2O hydrolysis and oxygen evolution catalyzed by LEAT protein under light; format: biochemical; set-up: key to O2 evolution activity: +: similar O2 evolution activity as that of YFP; ++: higher O2 evolution activity than that of YFP by at least one order of magnitude; weak: lower activity than that of YFP by at least one order of magnitude
Method: 1.85 ml of 50 mM phosphate buffer (pH6.5) was added in the reaction vessel of Clark-type oxygen electrode, then LEAT proteins (at a final concentration of 0.02-1 μg/ml) and 400 μM 2,3,5-trimethyl-1,4-benzoquinone (TMBQ) or other quinones were sequentially added into the buffer in dark. The oxygen evolution rate was measured under the light with corresponding excitation wave length for LEAT proteins and light intensity at 1-2 μmol m^−2 s^−1.

Brassica [2] = assay: Redox metabolites (NAD+/NADH, NADP+/NADPH, GSSG/GSH, ASC/DHA) in transgenic Brassica leaves; format: in vivo, Brassica napus L.; details: transgenic Brassica transferred from red+blue light to white light
Method: Leaves were from the 4-week-old Brassica plants grown under white light or red+blue light, or 2 h after being switched from red+blue light to white light. Extraction of metabolites from leaves and measurement of NAD^+/NADH, NADP^+/NADPH, GSSG/GSH and ASC/DHA follows G. Queval, G. Noctor, Anal Biochem. 363, 58 (2007).

Brassica [3] = assay: State transition of leaves and thylakoids of transgenic Brassica; format: in vivo, Brassica napus L.
Method: State transition of leaves was measured using PAM-101/PDA100 fluorometer (Walz) as described in (L. Dietzel et al., The Plant Cell 23, 2964 (Aug. 1, 2011). PSII light with a PFD of 100 μmol m^−2s^−1 was provided by a Schott KL-1500 lamp (Walz). PSI light with a PFD of 6 μmol m^−2s^−1 was provided by PAM-101 (Walz). The half-time (t1/2) of state 1-state 2 transition was determined by calculate the decrease of the fluorescence after PSI light was switched off. The half-time for state 2-state 1 transition was determined following L. Dietzel et al., The Plant Cell 23, 2964 (Aug. 1, 2011). Thylakoids isolated from Brassica leaves were added into STN buffer supplemented with 10 mM ATP in a final concentration of 5-10 μg/ml. Half of thylakoids were illuminated and half of the thylakoids were treated in dark for 20-30 min in room temperature, respectively. Chlorophyll α fluorescence emission spectra were recorded at 77K (in liquid nitrogen) using F-4600 spectrofluorometer (Hitachi, Japan), The excitation wavelength was set at 435 nm. Data were the average of four measurements.

Rubisco = Rubisco activity assay in transgenic Brassica leaves; format: in vivo, Brassica napus L.
Method: Ribulose-1,5-bisphosphate carboxylase/oxygenase (Rubisco) carboxylase activity assay: Soluble proteins were extracted from fresh leaves with extraction buffer (50 mM Tris-HCl pH 7.8, 1 mM EDTA, 50 mM NaCl, 2 mM β-Mercaptoethanol). The homogenate was centrifuged (12,000 g for 6 min at 4° C.) and the supernatant was used for Rubisco activity assay. Carboxylase activity of Rubisco was measured with ^14C-labelled method as described in (Wang Z Y, Snyder G W, Esau B D, Portis A R, Ogren W L (1992) Species-dependent variation in the interaction of substrate-bound ribulose-1,5-bisphosphate carboxylase/oxygenase (Rubisco) and Rubisco activase. Plant Physiology 100: 1858-1862).

[4] = Electron donation by pre-illuminated LEAT protein (NAD+/NADP+ reduction); format: biochemical
Method: FIG. 1. The effects of light on NAD^+ or NAPD^+ reduction by YFP.
It was reported that proteins such as GFP can function as electron donor to reduce the oxidized small compounds such as NAD^+, potassium ferricyanide, and some proteins such as cytochrome c, and FAD-containing proteins (Bogdanov A. M. et al, 2009, Nature Chemical Biology. 5:459-461), The invertors used E. coli to express and purify recombinant proteins. […] Quinone reduction under light was analyzed by monitoring the decrease of absorption at 436 nm.

Brassica [5] = assay: Growth, biomass and yield of transgenic Brassica; format: in vivo, Brassica napus L.; details: for fresh and dry weights vs WT and empty vector control: 4-week-old transgenic Brassica; for plant growth vs WT and empty vector control: 3 weeks
Text: FIG. 14. (A) WT, empty vector control (pHB) and mCherry transgenic Brassica (L1-L3) were germinated and grown for one week in the phytotron under white light (PPFD:250 μmol m^−2s^−1). Then the plants were moved and grown under white light, green light (PFD: 60 μmol m^−2s^−1) or red+blue light (red light PFD; 60 μmol m^−2s^−1, blue light PFD; 10 μmol m^−2s^−1) for another 3 weeks and photos were taken, (B) Comparison of the fresh weights and dry weights of WT and mCherry transgenic Brassica grown under white light, green light or red+blue light for four weeks. Values in the figures are means±SD, for WT, n=10, for transgenic plant transformed with empty vector control pHB and mCherry, data were the averages of three independent lines and 10 plants for each line. **p≦0.01. (C) Net photosynthetic rate of WT and mCherry transgenic Brassica measured under different light qualities. Nine-week-old WT and mCherry transgenic Brassica grown in the phytotron (PPFD: 250 μmol m^−2s^−1) were transferred and treated with different qualities of light for 4 days and net photosynthetic rate was measured. (D) Net photosynthetic rate of WT and mCherry transgenic Brassica grow in the natural field measured under different PPFD as light source. Net photosynthetic rate was measured in situ between 10:00 am and 12:00 pm. […] FIG. 15. (A) Measurement of the fresh weight and dry weight per plant of 7-week-old WT and mCherry transgenic Brassica plants grown in the natural field conditions. Values in the figures are means±SD, n=10. *p≦0.05, **p≦0.01. (B) Comparison of the plant size, silique size, seed size, grain yield per plant and 1000-seed weight at the harvesting time. Values in the figures are means±SD, n=10. *p≦0.05, **p≦0.01. Wild type (WT), transgenic Brassica with empty vector (pHB) and mCherry transgenic Brassica (L1-L3) were germinated in the phytotron under white light (light intensity: 250 μmol m^−2s^−1) for 1 week. Then the plants were transferred and continued to grow under white light, green light (light intensity: 60 μmol m^−2s^−1), red+blue light (intensity of red light: 60 μmol m^−2s^−1; intensity of blue light: 10 μmol m^−2s^−1). The […] were taken three weeks after transfer.

[6] = transgenic Brassica, young seedling stage

mCherry: red fluorescent protein, amino acid sequence SEQ ID NO: 2
water photohydrolysis and O2 evolution activity under light ([1]; TMBQ substituted with DQ or UQ): does not have water photohydrolysis and O2 evolution activity
activity of water hydrolysis among the quinones tested (order) ([1]; different quinones, under light): TMBQ>DMBQ2>MBQ>DMBQ1
O2 evolution activity ([1]; water hydrolysis and O2 evolution under light, relative to YFP): +
content of reduced metabolites or ratio of reduced to oxidized metabolites (NADH, NADPH, ascorbate, GSH) (Brassica [2]): increased
state transition of thylakoid membrane (Brassica [3]; transgenic Brassica grown under red+blue light, 77K fluorescence): no significant difference
percentage of state transition of thylakoid membrane (Brassica [3]; transgenic Brassica grown under white light, 77K fluorescence): increased
t0.5 for state transition between St1 and St2 (Brassica [3]; transgenic Brassica live leaf): significantly decreased
Rubisco activity and Rubisco activation state (Rubisco): increased
function as electron donor under light [4]: cannot continuously provide electrons under light
fresh and dry weights vs WT and empty vector control (Brassica [5]; red+blue light): no significant difference
fresh and dry weights vs WT and empty vector control (Brassica [5]; white or green light): significantly increased
1000-seed weight, increase vs WT (Brassica [5]; transgenic Brassica): 25%
grain yield per plant, increase vs WT (Brassica [5]; transgenic Brassica): 30 to 100%
1000-seed weight vs WT (in words) (Brassica [5]; transgenic Brassica at harvest): increased
grain yield per plant vs WT (in words) (Brassica [5]; transgenic Brassica at harvest): increased
seed size vs WT (Brassica [5]; transgenic Brassica at harvest): significantly increased
growth and biomass accumulation (Brassica [5]; transgenic Brassica, natural field conditions): stimulated the growth and biomass accumulation
plant growth vs WT and empty vector control (Brassica [5]; transgenic Brassica, red+blue light): No significant difference
plant growth vs WT and empty vector control (Brassica [5]; transgenic Brassica, white light and green light): grew better than WT and empty vector control plants
dry weight, increase vs WT (Brassica [5]; [6]): 78%
fresh weight, increase vs WT (Brassica [5]; [6]): 66.7%
